Data: paper PMC8920385, “Design, synthesis and biological evaluation of a series of dianilinopyrimidines as EGFR inhibitors” (Journal of Enzyme Inhibition and Medicinal Chemistry, 2022)

What was measured:
[1] = biological target: T1, wild type EGFR tyrosine kinase (EGFR^wt) (Homo sapiens, UniProt P00533); assay: In vitro EGFR^wt-TK assay (ELISA); type: biochemical; details: mean ± SD of three replicates; for inhibition at 1 µM: read-out: EGFR^wt-TK inhibition rate; for inhibition at 1 µM / EGFR^wt-TK inhibition rate: 1 μM
T1 construct: purchased PTM Bio; Co., Ltd

A549 cells = assay: Cytotoxicity evaluation (MTT assay), A549; type: cell-based; details: Homo sapiens, mean ± SD of three replicates
PC-3 cells = assay: Cytotoxicity evaluation (MTT assay), PC-3; type: cell-based; details: Homo sapiens, mean ± SD of three replicates
HepG2 cells = assay: Cytotoxicity evaluation (MTT assay), HepG2; type: cell-based; details: Homo sapiens, mean ± SD of three replicates
L02 cells = assay: Cytotoxicity evaluation (MTT assay), L02 normal cells; details: Homo sapiens, L02, read-out: IC50 L02
Experimental: Three tumour cells with high expression of EGFR^wt were used to test the antitumor activity of the compounds including, A549 (Human non-small-cell lung cancer cell line) cells, PC-3 (Human prostate cancer cell line) cells, and HepG2 (Human hepatocellular carcinomas cell line) cells. They were all purchased from the Shanghai Cell Bank of the Chinese Academy of Sciences. L02 (normal human liver cell line) cells were also used to evaluate the cytotoxicity. […] The IC50 values were calculated from the dose − response curve under Graph-Pad Prism.

T1 sequence (P00533 25-1210): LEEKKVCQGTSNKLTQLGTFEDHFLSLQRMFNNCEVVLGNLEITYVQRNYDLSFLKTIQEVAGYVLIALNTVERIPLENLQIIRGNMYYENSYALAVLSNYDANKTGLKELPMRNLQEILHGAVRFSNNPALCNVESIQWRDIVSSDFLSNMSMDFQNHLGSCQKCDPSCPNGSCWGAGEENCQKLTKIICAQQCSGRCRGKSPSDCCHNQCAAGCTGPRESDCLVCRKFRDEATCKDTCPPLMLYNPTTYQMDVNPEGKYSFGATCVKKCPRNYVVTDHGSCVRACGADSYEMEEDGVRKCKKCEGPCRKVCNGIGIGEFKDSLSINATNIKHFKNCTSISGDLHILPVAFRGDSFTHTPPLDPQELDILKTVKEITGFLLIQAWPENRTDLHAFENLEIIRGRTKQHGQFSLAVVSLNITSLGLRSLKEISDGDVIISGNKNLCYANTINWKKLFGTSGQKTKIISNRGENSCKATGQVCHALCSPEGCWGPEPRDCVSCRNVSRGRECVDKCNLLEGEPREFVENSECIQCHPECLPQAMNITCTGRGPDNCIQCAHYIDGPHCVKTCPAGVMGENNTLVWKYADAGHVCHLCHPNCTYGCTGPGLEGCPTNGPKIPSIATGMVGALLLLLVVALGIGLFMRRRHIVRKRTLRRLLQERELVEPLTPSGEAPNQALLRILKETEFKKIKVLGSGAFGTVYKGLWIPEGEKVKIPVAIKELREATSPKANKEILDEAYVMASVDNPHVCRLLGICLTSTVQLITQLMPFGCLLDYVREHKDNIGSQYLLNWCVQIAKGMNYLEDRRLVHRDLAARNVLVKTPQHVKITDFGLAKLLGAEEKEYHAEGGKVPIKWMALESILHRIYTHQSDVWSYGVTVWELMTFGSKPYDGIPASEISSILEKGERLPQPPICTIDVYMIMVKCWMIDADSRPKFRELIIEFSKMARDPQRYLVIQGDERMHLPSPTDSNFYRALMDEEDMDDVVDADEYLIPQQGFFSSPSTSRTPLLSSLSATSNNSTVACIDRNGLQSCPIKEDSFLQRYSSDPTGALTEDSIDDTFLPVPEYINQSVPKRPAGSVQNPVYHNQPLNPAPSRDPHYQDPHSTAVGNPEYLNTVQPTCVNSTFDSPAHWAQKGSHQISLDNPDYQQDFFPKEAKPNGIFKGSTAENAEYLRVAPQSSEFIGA

Structure (SMILES) | inhibition at 1 µM [1] | IC50 (A549 cells) | IC50 (PC-3 cells) | IC50 (HepG2 cells) | melting point | IC50 (L02 cells) | EGFR^wt-TK inhibition rate [1] | IC50 [1]
CNC(=O)c1ccsc1Nc1nc(Nc2ccc(NC(=O)c3ccc(OC)cc3)cc2)ncc1C(F)(F)F [4a, 2-{2-[4-(4-Methoxy-benzoylamino)-phenylamino]-5-trifluoromethyl-pyrimidin-4-ylamino}-thiophene-3-carboxylic acid methylamide] | 31.6 ± 3.27% | 9.32 ± 0.68 µM | 12.3 ± 0.89 µM | 11.5 ± 0.77 µM | > 250 °C | > 40 µM |  | 
CNC(=O)c1ccsc1Nc1nc(Nc2ccc(NC(=O)c3ccccc3F)cc2)ncc1C(F)(F)F [4b, 2-{2-[4-(2-Fluoro-benzoylamino)-phenylamino]-5-trifluoromethyl-pyrimidin-4-ylamino}-thiophene-3-carboxylic acid methylamide] | > 50% | 4.33 ± 0.59 µM | 7.81 ± 0.53 µM | 7.62 ± 0.46 µM | 224.8 to 226.3 °C | > 40 µM | 52.08 ± 1.93% | 0.89 ± 0.12 µM
CNC(=O)c1ccsc1Nc1nc(Nc2ccc(NC(=O)c3ccc(F)cc3)cc2)ncc1C(F)(F)F [4d, 2-{2-[4-(4-Fluoro-benzoylamino)-phenylamino]-5-trifluoromethyl-pyrimidin-4-ylamino}-thiophene-3-carboxylic acid methylamide] | 7.59 ± 0.25% | > 20 µM | > 20 µM | > 20 µM | 233.5 to 235.3 °C | > 40 µM |  | 
CNC(=O)c1ccsc1Nc1nc(Nc2ccc(NC(=O)c3ccc(F)c(F)c3)cc2)ncc1C(F)(F)F [4e, 2-{2-[4-(3,4-Difluoro-benzoylamino)-phenylamino]-5-trifluoromethyl-pyrimidin-4-ylamino}-thiophene-3-carboxylic acid methylamide] | 27.9 ± 1.34% | > 20 µM | > 20 µM | > 20 µM | 244.3 to 245.9 °C | > 40 µM |  | 
CNC(=O)c1ccsc1Nc1nc(Nc2ccc(NC(=O)c3cccc(C(F)(F)F)c3)cc2)ncc1C(F)(F)F [4f, 2-{5-Trifluoromethyl-2-[4-(3-trifluoromethyl-benzoylamino)-phenylamino]-pyrimidin-4-ylamino}-thiophene-3-carboxylic acid methylamide] | 30.8 ± 1.09% | 6.14 ± 0.78 µM | 8.51 ± 0.64 µM | 8.36 ± 0.49 µM | > 250 °C | > 40 µM |  | 
CCCNc1c(Nc2ccc(Nc3ncc(C(F)(F)F)c(Nc4sccc4C(=O)NC)n3)cc2)c(=O)c1=O [6a, 2-{2-[4-(3,4-Dioxo-2-propylamino-cyclobut-1-enylamino)-phenylamino]-5-trifluoromethyl-pyrimidin-4-ylamino}-thiophene-3-carboxylic acid methylamide] | 15.3 ± 0.48% | > 20 µM | > 20 µM | > 20 µM | > 250 °C | > 40 µM |  | 
CCCCCCNc1c(Nc2ccc(Nc3ncc(C(F)(F)F)c(Nc4sccc4C(=O)NC)n3)cc2)c(=O)c1=O [6b, 2-{2-[4-(2-Hexylamino-3,4-dioxo-cyclobut-1-enylamino)-phenylamino]-5-trifluoromethyl-pyrimidin-4-ylamino}-thiophene-3-carboxylic acid methylamide] | 17.4 ± 0.32% | > 20 µM | > 20 µM | > 20 µM | > 250 °C | > 40 µM |  | 
CNC(=O)c1ccsc1Nc1nc(Nc2ccc(Nc3c(NCCO)c(=O)c3=O)cc2)ncc1C(F)(F)F [6c, 2–(2-{4-[2-(2-Hydroxy-ethylamino)-3,4-dioxo-cyclobut-1-enylamino]-phenylamino}-5-trifluoromethyl-pyrimidin-4-ylamino)-thiophene-3-carboxylic acid methylamide] | 16.6 ± 0.21% | > 20 µM | > 20 µM | > 20 µM | > 250 °C | > 40 µM |  | 
CNC(=O)c1ccsc1Nc1nc(Nc2ccc(Nc3c(NC(C)C)c(=O)c3=O)cc2)ncc1C(F)(F)F [6d, 2-{2-[4-(2-Isopropylamino-3,4-dioxo-cyclobut-1-enylamino)-phenylamino]-5-trifluoromethyl-pyrimidin-4-ylamino}-thiophene-3-carboxylic acid methylamide] | 29.1 ± 1.03% | 10.1 ± 1.96 µM | > 20 µM | 14.1 ± 1.28 µM | > 250 °C | > 40 µM |  | 
CNC(=O)c1ccsc1Nc1nc(Nc2ccc(Nc3c(NC4CCCC4)c(=O)c3=O)cc2)ncc1C(F)(F)F [6e, 2-{2-[4-(2-Cyclopentylamino-3,4-dioxo-cyclobut-1-enylamino)-phenylamino]-5-trifluoromethyl-pyrimidin-4-ylamino}-thiophene-3-carboxylic acid methylamide] | > 50% | 7.14 ± 0.92 µM | 9.24 ± 0.86 µM | 9 ± 0.78 µM | > 250 °C | > 40 µM | 53.17 ± 3.05% | 0.74 ± 0.1 µM
CNC(=O)c1ccsc1Nc1nc(Nc2ccc(Nc3c(NC4CCCCC4)c(=O)c3=O)cc2)ncc1C(F)(F)F [6f, 2-{2-[4-(2-Cyclohexylamino-3,4-dioxo-cyclobut-1-enylamino)-phenylamino]-5-trifluoromethyl-pyrimidin-4-ylamino}-thiophene-3-carboxylic acid methylamide] | 34.1 ± 1.29% | 18.1 ± 2.45 µM | > 20 µM | > 20 µM | > 250 °C | > 40 µM |  | 
CNC(=O)c1ccsc1Nc1nc(Nc2ccc(Nc3c(NC4CCC(O)CC4)c(=O)c3=O)cc2)ncc1C(F)(F)F (stereo not drawn) [6g, 2-(2-{4-[2–(4-Hydroxy-cyclohexylamino)-3,4-dioxo-cyclobut-1-enylamino]-phenylamino}-5-trifluoromethyl-pyrimidin-4-ylamino)-thiophene-3-carboxylic acid methylamide] | 9.27 ± 0.25% | > 20 µM | > 20 µM | > 20 µM | > 250 °C | > 40 µM |  | 
CNC(=O)c1ccsc1Nc1nc(Nc2ccc(Nc3c(NC4CCN(C)CC4)c(=O)c3=O)cc2)ncc1C(F)(F)F [6h, 2-(2-{4-[2-(1-Methyl-piperidin-4-ylamino)-3,4-dioxo-cyclobut-1-enylamino]-phenylamino}-5-trifluoromethyl-pyrimidin-4-ylamino)-thiophene-3-carboxylic acid methylamide] | 10.6 ± 0.93% | > 20 µM | > 20 µM | > 20 µM | > 250 °C | > 40 µM |  | 
CNC(=O)c1ccsc1Nc1nc(Nc2ccc(Nc3c(NCCNC(=O)OC(C)(C)C)c(=O)c3=O)cc2)ncc1C(F)(F)F [6i, [2-(2-{4-[4-(3-Methylcarbamoyl-thiophen-2-ylamino)-5-trifluoromethyl-pyrimidin-2-ylamino]-phenylamino}-3,4-dioxo-cyclobut-1-enylamino)-ethyl]-carbamic acid tert-butyl ester] | > 50% | 3.11 ± 0.48 µM | 5.33 ± 0.47 µM | 5.24 ± 0.51 µM | > 250 °C | > 40 µM | 57.37 ± 1.82% | 0.66 ± 0.13 µM
CCC(=O)NCCNc1c(Nc2ccc(Nc3ncc(C(F)(F)F)c(Nc4sccc4C(=O)NC)n3)cc2)c(=O)c1=O [8a, 2-(2-{4-[3,4-Dioxo-2-(2-propionylamino-ethylamino)-cyclobut-1-enylamino]-phenylamino}-5-trifluoromethyl-pyrimidin-4-ylamino)-thiophene-3-carboxylic acid methylamide] | 6.86 ± 0.11% | > 20 µM | > 20 µM | > 20 µM | > 250 °C | > 40 µM |  | 
CNC(=O)c1ccsc1Nc1nc(Nc2ccc(Nc3c(NCCNC(=O)C(C)C)c(=O)c3=O)cc2)ncc1C(F)(F)F [8b, 2-(2-{4-[2-(2-Isobutyrylamino-ethylamino)-3,4-dioxo-cyclobut-1-enylamino]-phenylamino}-5-trifluoromethyl-pyrimidin-4-ylamino)-thiophene-3-carboxylic acid methylamide] | 7.92 ± 0.54% | > 20 µM | > 20 µM | > 20 µM | > 250 °C | > 40 µM |  | 
CNC(=O)c1ccsc1Nc1nc(Nc2ccc(Nc3c(NCCNC(=O)C4CCCC4)c(=O)c3=O)cc2)ncc1C(F)(F)F [8c, 2-[2–(4-{2-[2-(Cyclopentanecarbonyl-amino)-ethylamino]-3,4-dioxo-cyclobut-1-enylamino}-phenylamino)-5-trifluoromethyl-pyrimidin-4-ylamino]-thiophene-3-carboxylic acid methylamide] | 28.1 ± 1.27% | 7.32 ± 0.65 µM | 9.69 ± 1.13 µM | 9.54 ± 0.91 µM | > 250 °C | > 40 µM |  | 
CNC(=O)c1ccsc1Nc1nc(Nc2ccc(Nc3c(NCCNC(=O)C4CCCCC4)c(=O)c3=O)cc2)ncc1C(F)(F)F [8d, 2-[2-(4-{2-[2-(Cyclohexanecarbonyl-amino)-ethylamino]-3,4-dioxo-cyclobut-1-enylamino}-phenylamino)-5-trifluoromethyl-pyrimidin-4-ylamino]-thiophene-3-carboxylic acid methylamide] | 29 ± 1.55% | 6.14 ± 0.72 µM | 8.35 ± 0.74 µM | 8.28 ± 0.69 µM | > 250 °C | > 40 µM |  | 
